In patent publication US12667574B2, “Paraxanthine-based bioactive composition and method of use thereof” (PX ING, LLC, priority 2021, dated 2026):

Legend:
dopamine (dopa) [1] = assay: Dopamine concentration (second Example 4); type: in vivo, rats; conditions: for dopamine (dopa) concentration: oral 14 days
Protocol: (§1) Distilled water was provided ad libitum. […] Ltd (Bangalore, India).
(§2) The following HED were used in this study: 50 mg paraxanthine, (ENFINITY™, Ingenious Ingredients, L.P Lewisville, TX, USA; rat dose: 5.141 mg/kg bw/day); 25 mg L-Theanine (rat dose: 2.570 mg/kg bw), and 50 mg paraxanthine plus 25 mg L-Theanine. 0.5% Carboxy Methyl Cellulose sodium was used as vehicle and the test item formulations were prepared daily. […] The last dose on day 14 was given 1 hour prior to testing.

[2] = system: male Swiss Albino Wistar rats; assay: Walter Morris Maze test (Example 3); type: in vivo; conditions: for escape latency: oral 14 days
Protocol: Distilled water was provided ad libitum. […] Ltd (Bangalore, India). […] The last dose on day 14 was given 1 hour prior to testing. The Walter Morris Maze test consisted of a circular pool in a room with geometric shapes on the wall serving as spatial cues. The pool, which is 70 cm in diameter and painted with black color, filled with 13 cm depth of 25±1° C. water. A platform (6 cm diameter) was placed into one quadrant of the pool and submerged 1 cm below the water surface. For the training, all rats were trained to locate the submerged platform in constant location. The training day consisted of four trials. […] The rat was allowed to remain on the platform for 15 seconds before being dried off and later was transferred to a holding cage.

acetylcholine (Ach) [3] = assay: Acetylcholine concentration (Example 3); type: in vivo, rats; conditions: for acetylcholine (Ach) concentration: oral 14 days
Protocol: as §1
(§3) 0.5% Carboxy Methyl Cellulose sodium was used as vehicle and the test item formulations were prepared daily. […] The last dose on day 14 was given 1 hour prior to testing.

[4] = system: brain derived neuro factor, BDNF; assay: BDNF level, neuroplasticity (Example 3); type: in vivo, rats; conditions: for BDNF: oral 14 days
Protocol: as §1, §3

[5] = system: male Swiss Albino Wistar rats; assay: Walter Morris Maze test (second Example 4, L-Theanine); type: in vivo; conditions: for escape latency: oral 14 days
Protocol: as §1, §2
The Walter Morris Maze test consisted of a circular pool in a room with geometric shapes on the wall serving as spatial cues. The pool, which is 70 cm in diameter and painted with black color, filled with 13 cm depth of 25±1° C. water. A platform (6 cm diameter) was placed into one quadrant of the pool and submerged 1 cm below the water surface. For the training, all rats were trained to locate the submerged platform in a constant location. The training day consisted of four trials. During training, a rat started at one of four starting points and allowed to swim until it located the platform or until 60 seconds had elapsed. The rat was allowed to remain on the platform for 15 seconds before being dried off and later was transferred to a holding cage. […] The animals were continuously trained 4 times at 4 starting points continued daily for 4 days, the main trial was conducted on the 15th & 16th day and the latency of escaping onto the platform was recorded.

glutathione (GSH) [6] = assay: Glutathione level (second Example 4); type: in vivo, rats; conditions: for glutathione (GSH) level: oral 14 days
Protocol: as §1, §2

glutathione (GSH) [7] = assay: Glutathione level (Example 3); type: in vivo, rats; conditions: for glutathione (GSH) level: oral 14 days
Protocol: as §1, §3

acetylcholine (Ach) [8] = assay: Acetylcholine concentration (second Example 4); type: in vivo, rats; conditions: for acetylcholine (Ach) concentration: oral 14 days
Protocol: as §1, §2

male Swiss Albino mice [9] = assay: Treadmill endurance test (Example 2)
Protocol: Thirty-six 8-week-old male Swiss Albino mice were housed in an animal room at a constant temperature (22±3° C.) and humidity (30%-70%) under a 12:12 h light-dark cycle with standard laboratory diet (Purina 5L79, Rat and Mouse 18% protein; PMI Nutrition International, Brentwood, MO, USA). Distilled water was provided ad libitum. All animal experiments were reviewed and approved by the Institutional Animal Ethical Committee (IAEC) of Radiant Research Services Pvt. Ltd (Bangalore, India). All research was conducted in accordance with the guidelines of the committee for the purpose of control and supervision of experiments on animals.
The dose administered to the mice was calculated using US Food and Drug Administration for human equivalence doses (HED), assuming a human weight of 60 kg. […] 0.5% Carboxy Methyl Cellulose sodium was used as vehicle and the test item formulations were prepared daily. Dosing was conducted via oral gavage using disposable polypropylene syringes with sterilized stainless steel gavage tubes. The food intake and water consumption were monitored daily, and BW was recorded weekly. The last dose on day 28 was given 1 hour prior to testing.
On 28th day of each respective treatment, all animals were subjected to a muscle endurance test. Muscle endurance was accomplished on a motorized treadmill at a low to moderate intensity of 5-50 cm/sec as maximal running speed, an incline of ten degrees and a shock intensity of 0.2 mA, with the belt speed being increased by 5 cm/sec every two minutes until it reaches 50 cm/sec. Animals were subjected to the treadmill test until exhaustion. Distance traveled (cm) was measured as a marker of exercise performance, energy, and endurance.

dopamine (dopa) [10] = assay: Dopamine concentration (Example 3); type: in vivo, rats; conditions: for dopamine (dopa) concentration: oral 14 days
Protocol: as §1, §3

[11] = system: brain derived neuro factor, BDNF; assay: BDNF level, neuroplasticity (second Example 4); type: in vivo, rats; conditions: for BDNF: oral 14 days
Protocol: as §1, §2

male Swiss Albino mice [12] = assay: Treadmill endurance test (first Example 4, L-Theanine); type: in vivo
Protocol: as §1
The following HED were used in this study: 50 mg paraxanthine, (ENFINITY™ Ingenious Ingredients, L.P Lewisville, TX, USA; mouse dose: 10.275 mg/kg bw/day); 25 mg L-Theanine (mouse dose: 5.137 mg/kg bw), and 50 mg paraxanthine plus 25 mg L-Theanine. 0.5% Carboxy Methyl Cellulose sodium was used as vehicle and the test item formulations were prepared daily.
During the treatment period, exercise training was completed using a motorized treadmill (Exer 3/6, Columbus Instruments international, OH, USA) at a moderate intensity of 20 cm/sec as maximal running speed, an incline of ten degrees and a shock intensity of 0.2 mA, for ten minutes. The speed of the treadmill was manually adjusted by increasing the belt speed by 5 cm/sec every two minutes throughout the total duration of ten minutes. All animals were adapted to this procedure daily 60 minutes after dosing for five days in a week during the treatment period. 1.3. Treadmill Endurance Test
Muscle endurance was accomplished on a motorized treadmill at a low to moderate intensity of 5-50 cm/sec as maximal running speed, an incline of ten degrees and a shock intensity of 0.2 mA, with the belt speed being increased by 5 cm/sec every two minutes until it reaches 50 cm/sec. Animals were subjected to the treadmill test until exhaustion.

Cn1c(=O)[nH]c2ncn(C)c2c1=O [paraxanthine, 1,7-Dimethyl-3H-purine-2,6-dione]
dopamine (dopa) concentration (dopamine (dopa) [1]; old rats): 516.85 ± 4.43 ng/L
increase in dopa compared to L-Theanine (dopamine (dopa) [1]; old rats): 9.3%
increase in dopa compared to placebo (dopamine (dopa) [1]; old rats): 32.7%
dopamine (dopa) concentration (dopamine (dopa) [1]; young rats): 580.22 ± 5.33 ng/L
increase in dopa compared to L-Theanine (dopamine (dopa) [1]; young rats): 9.8%
increase in dopa compared to placebo (dopamine (dopa) [1]; young rats): 23.7%
escape latency ([2]; old rats (16-month-old)): 39.00 ± 1.90 s
decrease of escape latency compared to alpha-GPC ([2]; old rats): 2.1%
decrease of escape latency compared to control ([2]; old rats): 33.7%
decrease of escape latency compared to theobromine ([2]; old rats): 7.9%
decrease of escape latency compared to theophylline ([2]; old rats): 11.0%
escape latency ([2]; young rats (8-week-old)): 32.50 ± 1.38 s
decrease of escape latency compared to alpha-GPC ([2]; young rats): 6.7%
decrease of escape latency compared to control ([2]; young rats): 40%
decrease of escape latency compared to theobromine ([2]; young rats): 13.7%
decrease of escape latency compared to theophylline ([2]; young rats): 14.5%
acetylcholine (Ach) concentration (acetylcholine (Ach) [3]; old rats): 59.78±2.61 U/mL
increase in Ach compared to alpha-GPC (acetylcholine (Ach) [3]; old rats): 5.1%
increase in Ach compared to placebo (acetylcholine (Ach) [3]; old rats): 23.2%
increase in Ach compared to theobromine (acetylcholine (Ach) [3]; old rats): 5.5%
increase in Ach compared to theophylline (acetylcholine (Ach) [3]; old rats): 8.0%
acetylcholine (Ach) concentration (acetylcholine (Ach) [3]; young rats): 66.83±2.38 U/mL
increase in Ach compared to alpha-GPC (acetylcholine (Ach) [3]; young rats): 1.4%
increase in Ach compared to placebo (acetylcholine (Ach) [3]; young rats): 23.9%
increase in Ach compared to theobromine (acetylcholine (Ach) [3]; young rats): 4.0%
increase in Ach compared to theophylline (acetylcholine (Ach) [3]; young rats): 4.6%
BDNF ([4]; old rats): 842.68 ± 6.26 pg/mL
increase in BDNF compared to alpha-GPC ([4]; old rats): 1.5%
increase in BDNF compared to placebo ([4]; old rats): 18.1%
increase in BDNF compared to theobromine ([4]; old rats): 3.1%
increase in BDNF compared to theophylline ([4]; old rats): 3.8%
BDNF ([4]; young rats): 917.05 ± 5.21 pg/mL
increase in BDNF compared to alpha-GPC ([4]; young rats): 4.0%
increase in BDNF compared to placebo ([4]; young rats): 22.7%
increase in BDNF compared to theobromine ([4]; young rats): 5.4%
increase in BDNF compared to theophylline ([4]; young rats): 4.9%
escape latency ([5]; old rats (16-month-old)): 39.00 ± 1.90 s
decrease of escape latency compared to L-Theanine ([5]; old rats): 12.7%
decrease of escape latency compared to control ([5]; old rats): 33.7%
escape latency ([5]; young rats (8-week-old)): 32.50 ± 1.38 s
decrease of escape latency compared to L-Theanine ([5]; young rats): 15.2%
decrease of escape latency compared to control ([5]; young rats): 40%
glutathione (GSH) level (glutathione (GSH) [6]; old rats): 25.57 ± 0.80 µg/mL
increase in GSH compared to L-Theanine (glutathione (GSH) [6]; old rats): 7.1%
increase in GSH compared to placebo (glutathione (GSH) [6]; old rats): 62.1%
glutathione (GSH) level (glutathione (GSH) [6]; young rats): 32.57 ± 0.84 µg/mL
increase in GSH compared to L-Theanine (glutathione (GSH) [6]; young rats): 2.6%
increase in GSH compared to placebo (glutathione (GSH) [6]; young rats): 64.1%
glutathione (GSH) level (glutathione (GSH) [7]; old rats): 25.57 ± 0.80 µg/mL
increase in GSH compared to alpha-GPC (glutathione (GSH) [7]; old rats): 3.4%
increase in GSH compared to placebo (glutathione (GSH) [7]; old rats): 62.1%
increase in GSH compared to theobromine (glutathione (GSH) [7]; old rats): 4.2%
increase in GSH compared to theophylline (glutathione (GSH) [7]; old rats): 5.5%
glutathione (GSH) level (glutathione (GSH) [7]; young rats): 32.57 ± 0.84 µg/mL
increase in GSH compared to alpha-GPC (glutathione (GSH) [7]; young rats): 2.6%
increase in GSH compared to placebo (glutathione (GSH) [7]; young rats): 64.1%
increase in GSH compared to theobromine (glutathione (GSH) [7]; young rats): 3.9%
increase in GSH compared to theophylline (glutathione (GSH) [7]; young rats): 9.4%
acetylcholine (Ach) concentration (acetylcholine (Ach) [8]; old rats): 59.78±2.61 U/mL
increase in Ach compared to L-Theanine (acetylcholine (Ach) [8]; old rats): 7.0%
increase in Ach compared to placebo (acetylcholine (Ach) [8]; old rats): 23.3%
acetylcholine (Ach) concentration (acetylcholine (Ach) [8]; young rats): 66.83±2.38 U/mL
increase in Ach compared to L-Theanine (acetylcholine (Ach) [8]; young rats): 6.4%
increase in Ach compared to placebo (acetylcholine (Ach) [8]; young rats): 23.9%
increase of distance travelled compared to alpha-GPC (male Swiss Albino mice [9]; compared to alpha-GPC alone): 4.4%
increase of distance travelled compared to control (male Swiss Albino mice [9]; compared to control (placebo)): 81%
increase of distance travelled compared to theobromine (male Swiss Albino mice [9]; compared to theobromine): 6.3%
increase of distance travelled compared to theophylline (male Swiss Albino mice [9]; compared to theophylline): 9.9%
exercise performance, energy, and endurance (in words) (male Swiss Albino mice [9]; oral 28 days): significant improvements of exercise performance, energy, and endurance
dopamine (dopa) concentration (dopamine (dopa) [10]; old rats): 516.85 ± 4.43 ng/L
increase in dopa compared to alpha-GPC (dopamine (dopa) [10]; old rats): 2.1%
increase in dopa compared to placebo (dopamine (dopa) [10]; old rats): 32.7%
increase in dopa compared to theobromine (dopamine (dopa) [10]; old rats): 2.8%
increase in dopa compared to theophylline (dopamine (dopa) [10]; old rats): 4.2%
dopamine (dopa) concentration (dopamine (dopa) [10]; young rats): 580.22 ± 5.33 ng/L
increase in dopa compared to alpha-GPC (dopamine (dopa) [10]; young rats): 3.0%
increase in dopa compared to placebo (dopamine (dopa) [10]; young rats): 23.7%
increase in dopa compared to theobromine (dopamine (dopa) [10]; young rats): 5.0%
increase in dopa compared to theophylline (dopamine (dopa) [10]; young rats): 6.7%
BDNF ([11]; old rats): 842.7 ± 6.26 pg/mL
increase in BDNF compared to L-Theanine ([11]; old rats): 6.8%
increase in BDNF compared to placebo ([11]; old rats): 18.1%
BDNF ([11]; young rats): 917 ± 5.21 pg/mL
increase in BDNF compared to L-Theanine ([11]; young rats): 5.9%
increase in BDNF compared to placebo ([11]; young rats): 22.7%
increase of distance travelled compared to L-Theanine (male Swiss Albino mice [12]; compared to L-Theanine alone): 4.9%
increase of distance travelled compared to control (male Swiss Albino mice [12]; compared to control (placebo)): 81%
exercise performance, energy, and endurance (in words) (male Swiss Albino mice [12]; oral 28 days): significant improvements of exercise performance, energy, and endurance
distance travelled during treadmill exercise (male Swiss Albino mice [12]; oral once daily 28 days, HED 50 mg paraxanthine, 25 mg L-Theanine): 309.50±6.77 m
